# System: KBM7 WT cells (global proteome)
# Assay: Quantitative expression proteomics (TMT isobaric tagging), drug vs DMSO
# Assay type: cell-based, human
# From the text: The mechanism by which the assayed molecules re-program a functional CRL4B complex based on the data shown could be that drug binding to CUL4B recruits a neo-substrate directly to the cullin backbone. Alternatively, drug binding could stabilize CUL4B function to boost time intervals where a functionally competent CUL4B complexes can be formed. Here, the word “functional” implies that the CUL4B backbone of this complex needs to be neddylated, and a CUL4B associated E2 ubiquitin-conjugating enzyme (UBE2G1) needs to be bound. FIG. 9 outlines one possible mechanism. Both predicted mechanisms of action would result in a functionally altered CRL4B complex, and thus an altered stability of drug-induced (neo-) substrates. In order to identify target proteins with a decreased abundance or, in other words, target proteins that become degraded by CRL4B after drug treatment, global proteome composition was measured using quantitative expression proteomics (TMT-labeling). In brief, KBM7 cells were drug treated for 12 hours, lysed, and subjected to isobaric tagging. Ensuing proteomics analysis quantified a total of 7,903 proteins at a minimum spectral count of 2. […] Data on essentiality are taken from Hart et al., G3, August 2017 (PMID: 28655737).
# 50×10^6 KBM7^WT cells per condition were collected, washed four times with ice-cold PBS, the supernatant aspirated and pellets snap-frozen in liquid N2. Each washed cell pellet was lysed separately in 40 μL of freshly prepared lysis buffer as previously described (see Mayor-Ruiz et al., Mol Cell 2019)
# Offline Fractionation via RP-HPLC at high pH and 2D-RP/RP Liquid Chromatography Mass Spectrometry were performed as previously described (see Mayor-Ruiz et al., Mol Cell 2019).
# Acquired raw data files were processed using the Proteome Discoverer 2.2.0 platform, utilizing the Sequest HT database search engine and Percolator validation software node (V3.04) to remove false positives with a false discovery rate (FDR) of 1% on peptide and protein level under strict conditions. Searches were performed with full tryptic digestion against the human SwissProt database v2017.06 with up to two allowed miscleavage sites. Oxidation (+15.9949 Da) of methionine was set as variable modification, whilst carbamidomethylation (+57.0214 Da) of cysteine residues and TMT 6-plex labelling of peptide N-termini and lysine residues were set as fixed modifications. Data was searched with mass tolerances of ±10 ppm and ±0.02 Da on the precursor and fragment ions, respectively. Results were filtered to include peptide spectrum matches (PSMs) with Sequest HT cross-correlation factor (Xcorr) scores of […] and high peptide confidence assigned by Percolator. MS^2 signal-to-noise values (S/N) values of TMT reporter ions were used to estimate peptide/protein abundance changes. PSMs with precursor isolation interference values of ≥ 50% and average TMT-reporter ion S/N≤10 were excluded from quantitation. Only unique peptides were used for TMT quantitation as well as for TOP3 label-free quantitation. Isotopic impurity correction and TMT channel-normalization based on total peptide amount were applied. For statistical analysis and p-value calculation, the integrated ANOVA hypothesis test was used. TMT ratios with p-values below 0.01 were considered as significant. Only proteins with >1 peptide detected and >1 unique peptide detected were considered for further analysis. For the calling of destabilized proteins, a log 2 fold change threshold (drug/DMSO) of −0.3 was applied.
# Comparison of overall proteome-wide changes in KBM7 cells treated with IC020772.1 (2.5 μM), IC021313.2 (7 μM) or T6938051 (3.5 μM) for 5 h and 12h, using quantitative proteomics based on isobaric tagging.
# The protein names in Table 4, Table 5 and Table 6 refer to the protein names as provided by HUGO Gene Nomenclature Committee (HGNC) database. […]
compound,measurement,setting,value
O=C(CSc1nc2ccccc2[nH]1)Nc1ccc(Cl)cn1 [IC021313.2],"number of proteins significantly downregulated (log2FC < -0.3), destabilized proteins","KBM7 cells, 12 hours, ~10xEC50, 7,903 proteins quantified",839
same,number of downregulated proteins known to be implicated in KBM7 proliferation (essential for KBM7 viability),"KBM7 cells, 12 hours, essentiality from Hart et al. 2017",183
same,logFC (IC021313.2/DMSO),"protein AKAP11 (Q9UKA4), essential: false",−0.3004
same,logFC (IC021313.2/DMSO),"protein ALKBH3 (Q96Q83-1), essential: false",−0.3129
same,logFC (IC021313.2/DMSO),"protein ALKBH4 (Q9NXW9-1), essential: false",−0.3111
same,logFC (IC021313.2/DMSO),"protein ATXN7L3B (Q96GX2), essential: false",−0.3111
same,logFC (IC021313.2/DMSO),"protein BMT2 (Q1RMZ1), essential: false",−0.3111
same,logFC (IC021313.2/DMSO),"protein C10orf88 (Q9H8K7), essential: false",−0.3004
same,logFC (IC021313.2/DMSO),"protein CCNC (P24863-1), essential: false",−0.3129
same,logFC (IC021313.2/DMSO),"protein CHMP4B (Q9H444), essential: true",−0.3129
same,logFC (IC021313.2/DMSO),"protein CIT (O14578-4), essential: false",−0.3147
same,logFC (IC021313.2/DMSO),"protein CREB1 (P16220-1), essential: false",−0.3147
same,logFC (IC021313.2/DMSO),"protein CUEDC2 (Q9H467), essential: false",−0.3129
same,logFC (IC021313.2/DMSO),"protein DCUN1D4 (Q92564-3), essential: false",−0.3004
same,logFC (IC021313.2/DMSO),"protein DGCR14 (Q96DF8), essential: true",−0.3129
same,logFC (IC021313.2/DMSO),"protein DSG2 (Q14126), essential: false",−0.3111
same,logFC (IC021313.2/DMSO),"protein EIF4B (P23588-1), essential: false",−0.3129
same,logFC (IC021313.2/DMSO),"protein ENTPD6 (O75354-1), essential: false",−0.3004
same,logFC (IC021313.2/DMSO),"protein EPN1 (Q9Y6I3-2), essential: false",−0.3022
same,logFC (IC021313.2/DMSO),"protein FADS1 (O60427-1), essential: false",−0.3147
same,logFC (IC021313.2/DMSO),"protein FAM122A (Q96E09), essential: true",−0.3022
same,logFC (IC021313.2/DMSO),"protein GTF2H1 (P32780-1), essential: true",−0.3022
same,logFC (IC021313.2/DMSO),"protein GUCY1A3 (Q02108-1), essential: false",−0.3129
same,logFC (IC021313.2/DMSO),"protein KIF15 (Q9NS87-1), essential: false",−0.3022
same,logFC (IC021313.2/DMSO),"protein NCAPD2 (Q15021), essential: true",−0.3094
same,logFC (IC021313.2/DMSO),"protein NDRG3 (Q9UGV2-1), essential: false",−0.3111
same,logFC (IC021313.2/DMSO),"protein NUFIP1 (Q9UHK0), essential: true",−0.3129
same,logFC (IC021313.2/DMSO),"protein PFDN5 (Q99471-1), essential: false",−0.3111
same,logFC (IC021313.2/DMSO),"protein PHF8 (Q9UPP1-1), essential: false",−0.3022
same,logFC (IC021313.2/DMSO),"protein PLSCR1 (O15162-1), essential: false",−0.3111
same,logFC (IC021313.2/DMSO),"protein PO1A (Q8NBT0-1), essential: false",−0.3022
same,logFC (IC021313.2/DMSO),"protein PPIL4 (Q8WUA2), essential: false",−0.3004
same,logFC (IC021313.2/DMSO),"protein PSD4 (Q8NDX1-1), essential: false",−0.3022
same,logFC (IC021313.2/DMSO),"protein PUS3 (Q9BZE2), essential: false",−0.3022
same,logFC (IC021313.2/DMSO),"protein PVR (P15151-1), essential: false",−0.3004
same,logFC (IC021313.2/DMSO),"protein PYM1 (Q9BRP8-1), essential: false",−0.3022
same,logFC (IC021313.2/DMSO),"protein RAD54L (Q92698), essential: false",−0.3004
same,logFC (IC021313.2/DMSO),"protein RASSF5 (Q8WWW0-2), essential: false",−0.3022
same,logFC (IC021313.2/DMSO),"protein RPS17 (P08708), essential: true",−0.3094
same,logFC (IC021313.2/DMSO),"protein SKP2 (Q13309-1), essential: false",−0.3111
same,logFC (IC021313.2/DMSO),"protein SLC10A4 (Q96EP9), essential: false",−0.3111
same,logFC (IC021313.2/DMSO),"protein SLCO4A1 (Q96BD0-1), essential: false",−0.3004
same,logFC (IC021313.2/DMSO),"protein SUV39H1 (O43463-2), essential: false",−0.3004
same,logFC (IC021313.2/DMSO),"protein TANC2 (Q9HCD6-2), essential: false",−0.3129
same,logFC (IC021313.2/DMSO),"protein TFAP4 (Q01664), essential: true",−0.3094
same,logFC (IC021313.2/DMSO),"protein USP12 (O75317), essential: false",−0.3004
same,logFC (IC021313.2/DMSO),"protein WDR76 (Q9H967), essential: false",−0.3004
same,logFC (IC021313.2/DMSO),"protein ZNF770 (Q6IQ21), essential: false",−0.3004
same,logFC (IC021313.2/DMSO),"protein ZWILCH (Q9H900-1), essential: false",−0.3022
